Results as given in PMC10877774, “Development of an UPLC-MS/MS method for quantitative analysis of abexinostat levels in rat plasma and application of pharmacokinetics” (BMC Chemistry, 2024).

Key:
[1] = design: method as in PMID 28126962; conditions: patients with follicular lymphoma, T-cell lymphoma, diffuse large B-cell lymphoma, phase II; cited from earlier work
[2] = design: method as in PMID 26482040; conditions: 60 mg/m^2 group; grade 5 acute renal failure, grade 3 long-term diarrhea; cited from earlier work
[3] = Stability of abexinostat in rat plasma under different storage and handling conditions; assay type: in vitro ADME; conditions: for stability (in words) / stability of plasma samples (in words): RE within ± 15% considered stable; for Stability RE (%): n = 5
Description: For the preparation of control and standard curves, we dissolved abexinostat and IS in methanol at a concentration of 1.00 mg/mL. Both the abexinostat working solution and the 100 ng/mL IS working solution were diluted with methanol from their respective stock solutions. The corresponding working solution (10 μL) was diluted tenfold and operated by adding rat blank plasma (90 μL) to obtain a calibration curve with a concentration range of 2.00–100 ng/mL. The concentrations at each point in the standard curve were set to 2.00, 5.00, 10, 20, 50, 100 ng/mL, respectively. Final concentrations of QC samples were 2.00 (lower limit of quantitation, LLOQ), 5.00 (low quality control, LQC), 40 (median quality control, MQC), and 80 (high quality control, HQC) ng/mL.
The principles of the analytical methods in this study were performed in accordance with the FDA’s “Guidance for Industry: Bioanalytical Method Validation” [14], including calibration curves, selectivity, LLOQ, recovery, matrix effects, precision and accuracy, and stability.
Stability experiments to test abexinostat in plasma under different storage and handling conditions were done to investigate whether abexinostat was still stable in rat plasma. The stability test results were in Table 3. […] Furthermore, the assay remained stable in the autosampler (10 °C) for 4 h and 3 h at room temperature. Relative errors (RE) within ± 15% were considered stable by data comparison.

[4] = design: method as in PMID 27911138; conditions: cited from earlier work
[5] = Pharmacokinetic study in rats after single gavage dose, plasma levels by UPLC-MS/MS; assay type: in vivo, Sprague–Dawley Rats
Description: Quantitative analysis was performed using a UPLC-MS/MS system consisting of a Waters Xevo TQ-S triple quadrupole tandem mass spectrometer and a Waters ACQUITY UPLC I-Class system (Milford, MA, USA) used in this experiment. Accurate molecular weight calculations were achieved using an electrospray ionization (ESI) source (Milford, MA, USA) with ultra-high sensitivity. The system was chromatographed on an Acquity BEH C18 column (2.1 mm × 50 mm, 1.7 μm; Milford, MA, USA) at 40 °C with acetonitrile and 0.1% formic acid as mobile phases. Gradient elution was as follows: 0 − 0.5 min (acetonitrile, 10%) and 0.5–1.0 min (acetonitrile, 10–90%), 1.0–1.4 min (acetonitrile, 90%) and 1.4–1.5 min (acetonitrile, 90–10%) at 0.40 mL/min. Finally, the mobile phase was maintained 10% acetonitrile between 1.5 and 2.0 min for equilibration. A 2.0 μL sample was drawn from each vial as the injection volume, and the entire analysis process time was 2.0 min. In UPLC-MS/MS, we used positive ion mode to detect abexinostat and IS with ion transition of m/z 397.93 → 200.19 and 422.01 → 186.11, respectively. 25 eV and 30 V were the collision energy and cone voltage for both.
Plasma protein composition interfered with detection sensitivity. The protein precipitation method in this study was to add acetonitrile to the plasma, and the protein was fully precipitated and then centrifuged. We added 100 μL of the plasma sample along with 10 μL of the IS working solution (concentration of 100 ng/mL) in an Eppendorf (EP) tube. Mixing well and adding acetonitrile at a ratio of 1:3 to precipitate the protein in the EP tube, and centrifuged at 13,000 rpm for 10 min at 4 °C. 100 μL of the supernatant was transferred to an autosampler vial for quantitative analysis by the UPLC-MS/MS system.
Sprague–Dawley Rats Were Provided By The First Affiliated Hospital Of Wenzhou Medical University (Zhejiang, China), And The Animal Study Was Reviewed And Approved By Ethics Committee Of The First Affiliated Hospital of Wenzhou Medical University (WYYY-IACUC-AEC-2023-055). All rats were fasted for 24 h before the experimental animals, and a single gavage dose of 8.00 mg/kg of abexinostat was administered to 6 rats after fasting. At 20 and 40 min, 1, 1.5, 2, 3, 4, 6, 8, 12, 24, and 48 h after gavage, 300 μL of whole blood was collected from the tail vein of the rat and put into heparinized tubes. Then, the blood sample was centrifuged at 8000 rpm for 5 min. 100 μL of plasma was obtained and frozen at − 80 °C for further processing and analysis.
The main parameters of pharmacokinetics were analyzed by Drug and Statistics (DAS, Version 3.0 software, Shanghai University of Traditional Chinese Medicine, China).

[6] = patients, most common grade 3 treatment-related adverse events
[7] = Sprague-Dawley, po, rat plasma, intragastric single dose 8.00 mg/kg, n = 6, Mean ± SD

stability (in words) ([3]; 3 h at room temperature): stable
Stability RE (%) ([3]; Autosampler 10 ℃, 4 h, 40 ng/mL): 15.0%
stability (in words) ([3]; autosampler (10 °C) for 4 h): stable
Stability RE (%) ([3]; plasma, Room temperature, 3 h, 40 ng/mL): 2.2%
Stability RE (%) ([3]; plasma, Room temperature, 3 h, 80 ng/mL): 0.2%
Stability RE (%) ([3]; plasma, Three freeze–thaw (− 80 °C/room temperature), 80 ng/mL): 13.8%
Stability RE (%) ([3]; plasma, − 80 ℃, 3 weeks, 5.00 ng/mL): 5.4%
Stability RE (%) ([3]; plasma, − 80 ℃, 3 weeks, 40 ng/mL): 3.3%
stability of plasma samples (in words) ([3]; three cycles of full freezing (− 80 °C)/thawing (room temperature)): stable
stability of plasma samples (in words) ([3]; − 80 °C for at least 3 weeks): stable
AUC(0-inf) [5, 7]: 501 ± 40.1 ng·h/mL
AUC(0-t) [5, 7]: 461 ± 38.9 ng·h/mL
Cmax [5, 7]: 28.2 ± 7.67 ng/mL
half-life [5, 7]: 13.8 ± 2.5 h
CL/F ([5]; Sprague-Dawley, po, rat plasma, intragastric single dose 8.00 mg/kg, n = 6, Mean ± SD, read-out: CLz/F (converted)): 267 mL/min/kg
MRT last ([5]; Sprague-Dawley, po, rat plasma, intragastric single dose 8.00 mg/kg, n = 6, Mean ± SD, read-out: MRT0-t): 14.8 ± 0.8 h
MRT inf ([5]; Sprague-Dawley, po, rat plasma, intragastric single dose 8.00 mg/kg, n = 6, Mean ± SD, read-out: MRT0-∞): 19.1 ± 2.55 h
Tmax ([5]; Sprague-Dawley, rat, plasma, po, 8 mg/kg, rat plasma, intragastric single dose 8.00 mg/kg, n = 6, Mean ± SD): ~1.39 h
time at which plasma concentration peaks, estimated from Fig. 3 ([5]; rats, oral administration 8.00 mg/kg, mean concentration–time curve): around 1 h
Structure (SMILES): CN(C)Cc1c(C(=O)NCCOc2ccc(C(=O)NO)cc2)oc2ccccc12 [Abexinostat]
tumor control (in words) [1]: durable tumor control
patients with dose-limited toxicities (DLTs) [2]: 2/8
evaluable patients with stable disease ([4]; Phase I, various types of leukemia): 1 out of 12
grade 3 treatment-related adverse event: neutropenia [4, 6]: 24%
grade 3 treatment-related adverse event: thrombocytopenia [4, 6]: 29%
